One assay has as its system mice. Kind of assay: analgesic activity in mice, modification of Nilsen's method. The following applies: Mus musculus, ip; administered intraperitoneally to mice; read-out: ED50 analgetic dose. It counts as in vivo. The procedure: The analgesic activity of the 1-cyclopropyl-1-alkanoyloxy-1-phenyl-ω-amino alkane compounds of this invention were determined by a modification of Nilsen's method [Funderburk, W. H., et al, Arch. Int.

The subject of assay [1] is depressant effects which are induced in mice by tetrabenazine. Kind of assay: blocking the depressant effects induced in mice by intravenous tetrabenazine (modification of Englehardt et al.). The settings on record: Mus musculus, IP. It counts as in vivo. The procedure:
The activity of the compounds was determined by their administration intraperitoneally to mice and their effectiveness in blocking the depressant effects which are induced in mice by the intravenous administration of 2-oxo-3-insobutyl-9,10-dimethoxy-1,2,3,4,6,7-hexahydro-11bh-benzo[a]quinolizine (tetrabenazine). The procedure used was a modification of Englehardt, E. L. et al, J. Med. Chem. 11 (2), 325(1968). The ED50 values of the compounds are given in Table I; the compounds of Examples 3, 5, 7 and 8 are the preferred compounds.

Where a name gives a salt, the structure may show the parent alone.

As usually defined, the ED50 is the midpoint of the dose-response relation. `CCC(=O)OC(CCN(C)C)(c1ccccc1)C1CC1` (centres unmarked) [Example 10, 1-Cyclopropyl-3-dimethylamino-1phenyl-1-propionyloxypropane Hydrochloride]: the ED50 with mice was found to be 14.2 mg/kg; in assay [1] it was 7.7 mg/kg.
